Assays:
cartilage [1] = test: optical (Cerenkov) imaging of joints in mice, in vivo and ex vivo; conditions: FIG. 3, tail vein injection, 5 days post-injection, optical imaging instrument (in vivo and ex vivo)
Protocol: (§1) The mice were injected with tracer through tail vein and then imaged at 5 days post-injection by small animal PET (left two columns of images) and optical imaging instrument (in vivo and ex vivo) (right two columns images).

cartilage [2] = test: small animal PET imaging of cartilage / osteoarthritis joints in mice; format: in vivo
Protocol: The mice were injected with ^89Zirconium oxalate through tail vein and then imaged by small animal PET.
as §1

[3] = FIG. 3, tail vein injection, 5 days post-injection

Substance: ^89Zr oxalate
- signal in OA joints (cartilage [1]): low signal
- signal in sham and untreated joints (cartilage [1]): high signal
- signal in OA joints (cartilage [2]; FIG. 2, tail vein injection): low signal
- signal in sham and untreated joints (cartilage [2]; FIG. 2, tail vein injection): high signal
- signal in OA joints (cartilage [2]; [3]): low signal
- signal in sham and untreated joints (cartilage [2]; [3]): high signal
